Source: patent US11827639B2, “TDO2 and IDO1 inhibitors” (Genentech, Inc., priority 2017, dated 2023)
pEC50: −log10 of the molar value.

Tests used:
[1] = molecular target: TDO2 (Homo sapiens, UniProt P48775); assay: cell-based
[2] = molecular target: IDO1 (Homo sapiens, UniProt P14902); assay: cell-based
Sequence of IDO1 (P14902 whole entry): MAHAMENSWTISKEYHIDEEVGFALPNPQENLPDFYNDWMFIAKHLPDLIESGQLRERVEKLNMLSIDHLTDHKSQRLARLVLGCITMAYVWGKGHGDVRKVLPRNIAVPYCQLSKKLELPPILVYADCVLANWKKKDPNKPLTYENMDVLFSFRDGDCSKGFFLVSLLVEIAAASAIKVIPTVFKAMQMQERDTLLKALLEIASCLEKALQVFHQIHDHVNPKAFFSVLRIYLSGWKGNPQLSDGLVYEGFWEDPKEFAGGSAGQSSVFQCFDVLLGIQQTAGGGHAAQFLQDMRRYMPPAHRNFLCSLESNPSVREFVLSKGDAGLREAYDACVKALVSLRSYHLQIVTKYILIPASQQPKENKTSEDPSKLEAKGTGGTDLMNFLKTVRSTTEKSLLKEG

Sequence of TDO2 (P48775 whole entry): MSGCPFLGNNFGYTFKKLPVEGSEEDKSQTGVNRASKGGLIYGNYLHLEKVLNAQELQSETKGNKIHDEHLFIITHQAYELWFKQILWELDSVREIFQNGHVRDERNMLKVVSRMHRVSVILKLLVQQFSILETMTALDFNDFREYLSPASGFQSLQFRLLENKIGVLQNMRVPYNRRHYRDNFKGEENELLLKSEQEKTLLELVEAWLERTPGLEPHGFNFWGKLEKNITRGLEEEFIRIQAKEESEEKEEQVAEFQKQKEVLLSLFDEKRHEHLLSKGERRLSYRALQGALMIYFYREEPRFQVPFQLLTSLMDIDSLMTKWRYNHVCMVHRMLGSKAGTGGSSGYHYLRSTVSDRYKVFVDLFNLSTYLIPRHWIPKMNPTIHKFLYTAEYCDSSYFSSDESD

SMILES | pEC50 [1] | pEC50 [2]
CCS(=O)(=O)Nc1cc2n(n1)CCC(C1c3ccccc3-c3cncn31)=C2 (stereo not shown) [Example 68, N-(5-(5H-imidazo[5,1-a]isoindol-5-yl)-6,7-dihydropyrazolo[1,5-a]pyridin-2-yl)ethanesulfonamide] | 5.85 | 
c1ccc2c(c1)-c1cncn1C2C1CCc2ccncc2C1 (stereo not shown) [Example 46, 5-(5,6,7,8-tetrahydroisoquinolin-7-yl)-5H-imidazo[5,1-a]isoindole] | 7.57 | 5.70
N#Cc1cccc(C2c3ccccc3-c3cncn32)c1 (stereo not shown) [Example 17, 3-(5H-imidazo[5,1-a]isoindol-5-yl)benzonitrile] | 5.70 | 4.80
c1ccc2c(c1)-c1cncn1C2CCC1CCCCC1 (stereo not shown) [Example 22, 5-(2-cyclohexylethyl)-5H-imidazo[5,1-a]isoindole] | 5.64 | 
Fc1cccc(C2c3ccccc3-c3cncn32)c1 (stereo not shown) [Example 30, 5-(3-fluorophenyl)-5H-imidazo[5,1-a]isoindole] | 6.47 | 5.30
OCc1cc(F)cc(C2c3ccccc3-c3cncn32)c1 (single isomer, unassigned) [Example 09b] | 7.02 | 5.48
Cc1cccc(C2c3ccccc3-c3cncn32)c1 (stereo not shown) [Example 21, 5-(m-tolyl)-5H-imidazo[5,1-a]isoindole] | 6.44 | 5.01
O=C(C1CC1)N1CCC(C2c3ccccc3-c3cncn32)CC1 (stereo not shown) [Example 18, (4-(5H-imidazo[5,1-a]isoindol-5-yl)piperidin-1-yl)(cyclopropyl)methanone] | 5.02 | 4.72
N#CC1(CC2c3ccccc3-c3cncn32)CC1 (stereo not shown) [Example 48, 1-((5H-imidazo[5,1-a]isoindol-5-yl)methyl)cyclopropane-1-carbonitrile] | 5.21 | 
Fc1cc(Cl)cc(C2c3ccccc3-c3cncn32)c1 (stereo not shown) [Example 40, 5-(3-chloro-5-fluorophenyl)-5H-imidazo[5,1-a]isoindole] | 6.54 | 5.42
Fc1cc(C2c3ccccc3-c3cncn32)cc(F)c1F (stereo not shown) [Example 65, 5-(3,4,5-trifluorophenyl)-5H-imidazo[5,1-a]isoindole] | 6.68 | 5.72
O=S1(=O)NCC2CC(C3c4ccccc4-c4cncn43)CCN21 (stereo not shown) [Example 94, 5-(5H-imidazo[5,1-a]isoindol-5-yl)hexahydro-2H-[1,2,5]thiadiazolo[2,3-a]pyridine 1,1-dioxide] | 6.38 | 5.15
c1ccc2c(c1)-c1cncn1C2C1CCC2(CC1)OCCO2 (stereo not shown) [Example 26, 5-(1,4-dioxaspiro[4.5]decan-8-yl)-5H-imidazo[5,1-a]isoindole] | 5.49 | 5.01
c1ccc2c(c1)-c1cncn1C2c1cnn2c1CCC2 (stereo not shown) [Example 87, 5-(5,6-dihydro-4H-pyrrolo[1,2-b]pyrazol-3-yl)-5H-imidazo[5,1-a]isoindole] | 5.57 | 
CCS(=O)(=O)N1CC(C2c3ccccc3-c3cncn32)C1 (stereo not shown) [Example 25, 5-(1-(ethylsulfonyl)azetidin-3-yl)-5H-imidazo[5,1-a]isoindole] | 4.85 | 
c1ccc2c(c1)-c1cncn1C2C1CCOCC1 (stereo not shown) [Example 14, 5-(tetrahydro-2H-pyran-4-yl)-5H-imidazo[5,1-a]isoindole] | 6.09 | 4.82
NS(=O)(=O)c1cccc(C2c3ccccc3-c3cncn32)c1 (single isomer, unassigned) [Example 07b] | 6.10 | 5.19
NS(=O)(=O)N1CC2(CC(C3c4ccccc4-c4cncn43)C2)C1 (stereo not shown) [Example 66, 6-(5H-imidazo[5,1-a]isoindol-5-yl)-2-azaspiro[3.3]heptane-2-sulfonamide] | 5.96 | 4.70
CC(C)(C)OC(=O)N1CCC2(CC1)CC(C1c3ccccc3-c3cncn31)C2 (stereo not shown) [Example 57, tert-butyl 2-(5H-imidazo[5,1-a]isoindol-5-yl)-7-azaspiro[3.5]nonane-7-carboxylate] | 5.82 | 6.04
CNS(=O)(=O)c1cccc(C2c3ccccc3-c3cncn32)c1 (stereo not shown) [Example 12, 3-(5H-imidazo[5,1-a]isoindol-5-yl)-N-methylbenzenesulfonamide] | 5.74 | 4.96

SMILES | pEC50 [1] | pEC50 [2]
OCc1cccc(C2c3ccccc3-c3cncn32)n1 (stereo not shown) [Example 03, (6-(5H-imidazo[5,1-a]isoindol-5-yl)pyridin-2-yl)methanol] | 4.89 | 
NC(=O)C1(CC2c3ccccc3-c3cncn32)CC1 (stereo not shown) [Example 54, 1-((5H-imidazo[5,1-a]isoindol-5-yl)methyl)cyclopropane-1-carboxamide] | 5.27 | 
c1ccc2c(c1)-c1cncn1C2C1CCn2nccc2C1 (single isomer, unassigned) [Example 05a] | 5.96 | 
NS(=O)(=O)c1cccc(C2c3ccccc3-c3cncn32)c1 (single isomer, unassigned) [Example 07a] | 5.14 | 
CS(=O)(=O)N1CCC2(CC1)CC(C1c3ccccc3-c3cncn31)C2 (stereo not shown) [Example 59, 5-(7-(methylsulfonyl)-7-azaspiro[3.5]nonan-2-yl)-5H-imidazo[5,1-a]isoindole] | 6.62 | 5.82
OCc1cccc([C@@H]2c3ccccc3-c3cncn32)c1 [Example 01a, (R)-(3-(5H-imidazo[5,1-a]isoindol-5-yl)phenyl)methanol] | 4.96 | 
OCc1cccc([C@H]2c3ccccc3-c3cncn32)c1 [Example 01b, (S)-(3-(5H-imidazo[5,1-a]isoindol-5-yl)phenyl)methanol] | 6.51 | 5.07
CC1(O)CCC(C2c3ccccc3-c3cncn32)CC1 (stereo not shown) [Example 70, 4-(5H-imidazo[5,1-a]isoindol-5-yl)-1-methylcyclohexan-1-ol] | 6.74 | 6.07
Fc1cc(F)cc(C2c3ccccc3-c3cncn32)c1 (stereo not shown) [Example 45, 5-(3,5-difluorophenyl)-5H-imidazo[5,1-a]isoindole] | 6.85 | 5.72
OCc1ccc(F)c(C2c3ccccc3-c3cncn32)c1 (stereo not shown) [Example 08, (4-fluoro-3-(5H-imidazo[5,1-a]isoindol-5-yl)phenyl)methanol] | 5.82 | 
CC(C)(C)OC(=O)N1CC2(CCC(C3c4ccccc4-c4cncn43)CC2)C1 (stereo not shown) [Example 76, tert-butyl 7-(5H-imidazo[5,1-a]isoindol-5-yl)-2-azaspiro[3.5]nonane-2-carboxylate] | 5.74 | 6.85
c1cncc(C2c3ccccc3-c3cncn32)c1 (stereo not shown) [Example 37, 5-(pyridin-3-yl)-5H-imidazo[5,1-a]isoindole] | 5.39 | 
CC1(C)CC(C2c3ccccc3-c3cncn32)C1 (stereo not shown) [Example 67, 5-(3,3-dimethylcyclobutyl)-5H-imidazo[5,1-a]isoindole] | 6.68 | 6.05
CS(=O)(=O)N1CCC(C2c3ccccc3-c3cncn32)CC1 (stereo not shown) [Example 16, 5-(1-(methylsulfonyl)piperidin-4-yl)-5H-imidazo[5,1-a]isoindole] | 6.82 | 6.03
C1=C(C2c3ccccc3-c3cncn32)CCn2cccc21 (stereo not shown) [Example 04, 5-(5,6-dihydroindolizin-7-yl)-5H-imidazo[5,1-a]isoindole] | 5.64 | 4.92
c1ccc2c(c1)-c1cncn1C2C1CCn2nccc2C1 (single isomer, unassigned) [Example 05b] | 5.77 | 
NC(=O)c1cccc(C2c3ccccc3-c3cncn32)c1 (stereo not shown) [Example 11, 3-(5H-imidazo[5,1-a]isoindol-5-yl)benzamide] | 6.19 | 
c1ccc2c(c1)-c1cncn1C2c1ccncc1 (stereo not shown) [Example 41, 5-(pyridin-4-yl)-5H-imidazo[5,1-a]isoindole] | 5.60 | 
c1ccc2c(c1)-c1cncn1C2C1CCn2nccc2C1 (single isomer, unassigned) [Example 05c] | 4.62 | 

The remaining lines, values ahead:

pEC50 [1] | pEC50 [2] | SMILES
6.11 | 5.09 | Cn1ncc2cc(C3c4ccccc4-c4cncn43)ccc21 (stereo not shown) [Example 55b]
5.24 |  | CC(O)c1cccc(C2c3ccccc3-c3cncn32)c1 (single isomer, unassigned) [Example 10b]
5.30 |  | CC(O)c1cccc(C2c3ccccc3-c3cncn32)c1 (single isomer, unassigned) [Example 10d]
6.11 | 5.64 | CS(=O)(=O)C1CCC(C2c3ccccc3-c3cncn32)CC1 (single isomer, unassigned) [Example 83b]
 | 5.19 | NC(=O)C1CCC(C2c3ccccc3-c3cncn32)CC1 (single isomer, unassigned) [Example 60c]
6.23 | 4.66 | CC(O)c1cccc(C2c3ccccc3-c3cncn32)c1 (single isomer, unassigned) [Example 10c]
5.60 | 5.85 | CS(=O)(=O)N1CC2(CCC(C3c4ccccc4-c4cncn43)CC2)C1 (single isomer, unassigned) [Example 78b]
6.49 | 5.30 | C[C@H](O)c1cccc([C@H]2c3ccccc3-c3cncn32)c1 [Example 10a, (S)-1-(3-((S)-5H-imidazo[5,1-a]isoindol-5-yl)phenyl)ethan-1-ol]
5.00 |  | Cn1cc(C2c3ccccc3-c3cncn32)cn1 (single isomer, unassigned) [Example 79a]
5.00 | 4.74 | CS(=O)(=O)N1CC2(CCC(C3c4ccccc4-c4cncn43)CC2)C1 (single isomer, unassigned) [Example 78a]
5.15 |  | Cn1cc(C2c3ccccc3-c3cncn32)ccc1=O (single isomer, unassigned) [Example 84a]
4.77 |  | CS(=O)(=O)N1CC2(CC(C3c4ccccc4-c4cncn43)C2)C1 (single isomer, unassigned) [Example 72b]
4.66 |  | CS(=O)(=O)C1CCC(C2c3ccccc3-c3cncn32)CC1 (single isomer, unassigned) [Example 83a]
6.57 | 5.82 | NC(=O)C1CCC(C2c3ccccc3-c3cncn32)CC1 (single isomer, unassigned) [Example 60b]
6.14 | 5.52 | CS(=O)(=O)N1CC2(CC(C3c4ccccc4-c4cncn43)C2)C1 (single isomer, unassigned) [Example 72a]
